Data taken from PubChem BioAssay AID330 (DTP/NCI, 2004).
Values joined by “and” are separate entries in the source; they are usually repeats but may differ in a detail not shown here. Identical values can stand only once. Inconclusive results and toxic doses are left out.

Test system: P388 leukemia ip, CD2F1 mice, survival T/C
Assay: NCI In Vivo Anticancer Drug Screen. Data for tumor model P388 Leukemia (intraperitoneal) in CD2F1 (CDF1) mice
Conditions: endpoint: median survival time, higher = longer survival
Procedure, shortened: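 Mice carrying the transplanted tumor received test compound or vehicle. Survival was recorded in each group, and the value is the treated-group measurement divided by that of the vehicle-treated control group.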

[1] = dose: 50.0 mg/kg/injection, schedule: Q01DX005 (ip), vehicle: Klucel (hydroxypropylcellulose) (HPC)
[2] = dose: 100.0 mg/kg/injection, schedule: Q01DX005 (ip), vehicle: Klucel (hydroxypropylcellulose) (HPC)
[3] = dose: 50.0 mg/kg/injection, schedule: Q01DX009 (ip), vehicle: Klucel (hydroxypropylcellulose) (HPC)
[4] = dose: 100.0 mg/kg/injection, schedule: Q01DX009 (ip), vehicle: Klucel (hydroxypropylcellulose) (HPC)
[5] = dose: 200.0 mg/kg/injection, schedule: Q01DX009 (ip), vehicle: Klucel (hydroxypropylcellulose) (HPC)
[6] = dose: 50.0 mg/kg/injection, schedule: Q01DX009 (ip), vehicle: saline with Tween-80
[7] = dose: 50.0 mg/kg/injection, schedule: Q01DX009 (ip), vehicle: saline
[8] = dose: 100.0 mg/kg/injection, schedule: Q01DX009 (ip), vehicle: saline
[9] = dose: 60.0 mg/kg/injection, schedule: Q01DX005 (ip), vehicle: saline with Tween-80
[10] = dose: 120.0 mg/kg/injection, schedule: Q01DX005 (ip), vehicle: saline with Tween-80
[11] = dose: 240.0 mg/kg/injection, schedule: Q01DX005 (ip), vehicle: saline with Tween-80
[12] = dose: 50.0 mg/kg/injection, schedule: Q01DX005 (ip), vehicle: saline with Tween-80
[13] = dose: 100.0 mg/kg/injection, schedule: Q01DX005 (ip), vehicle: saline with Tween-80
[14] = dose: 100.0 mg/kg/injection, schedule: Q04DX002 (ip), vehicle: saline
[15] = dose: 200.0 mg/kg/injection, schedule: Q04DX002 (ip), vehicle: saline

Compound: N=C(N)c1ccc(/C=C/c2cc3cc(C(=N)N)ccc3o2)cc1
- T/C (dose: 12.5 mg/kg/injection, schedule: Q04DX003 (ip), vehicle: suspension in saline): 112 % of control
- T/C (dose: 25.0 mg/kg/injection, schedule: Q04DX003 (ip), vehicle: suspension in saline): 118 % of control
- T/C (dose: 50.0 mg/kg/injection, schedule: Q04DX003 (ip), vehicle: suspension in saline): 120 % of control
- T/C (dose: 100.0 mg/kg/injection, schedule: Q04DX003 (ip), vehicle: suspension in saline): 178 % of control

Compound: CCOC(=O)N1CCC23C=C(OC)C(=O)C=C2C1CC1=C3C(=O)C(OC)=CC1=O (centres undefined)
- T/C (dose: 100.0 mg/kg/injection, schedule: Q01DX001 (ip), vehicle: saline): 101 % of control
- T/C (dose: 200.0 mg/kg/injection, schedule: Q01DX001 (ip), vehicle: saline): 97 % of control
- T/C (dose: 400.0 mg/kg/injection, schedule: Q01DX001 (ip), vehicle: saline): 105 % of control

Compound: C=C(C)C(=NC)NC(C)(C)C
- T/C [1]: 100 % of control
- T/C [2]: 102 % of control

Compound: CC(CO)/[N+]([O-])=N/O (centres undefined)
- T/C (dose: 6.0 mg/kg/injection, schedule: Q01DX005 (ip), vehicle: Klucel (hydroxypropylcellulose) (HPC)): 95 % of control
- T/C (dose: 12.0 mg/kg/injection, schedule: Q01DX005 (ip), vehicle: Klucel (hydroxypropylcellulose) (HPC)): 94 % of control
- T/C (dose: 24.0 mg/kg/injection, schedule: Q01DX005 (ip), vehicle: Klucel (hydroxypropylcellulose) (HPC)): 100 % of control
- T/C (dose: 48.0 mg/kg/injection, schedule: Q01DX005 (ip), vehicle: Klucel (hydroxypropylcellulose) (HPC)): 100 % of control

Compound: Nc1nc(Nc2ccccc2)n[nH]1
- T/C [3]: 102 % of control
- T/C [4]: 102 % of control
- T/C [5]: 94 % of control

Compound: O=c1c2ccccc2sc2c([N+](=O)[O-])ccc(NCCNCCO)c12
- T/C [6]: 120 % of control and 123 % of control

Compound: CC(C)[CH2][Ge]([Cl])([Cl])[Cl]
- T/C (dose: 0.78 mg/kg/injection, schedule: Q01DX009 (ip), vehicle: saline): 103 % of control
- T/C (dose: 1.56 mg/kg/injection, schedule: Q01DX009 (ip), vehicle: saline): 106 % of control
- T/C (dose: 3.12 mg/kg/injection, schedule: Q01DX009 (ip), vehicle: saline): 94 % of control
- T/C (dose: 6.25 mg/kg/injection, schedule: Q01DX009 (ip), vehicle: saline): 119 % of control

Compound: CC(=N/N=C(N)N)/C(C)=N\Nc1ccc(Cl)cc1
- T/C (dose: 25.0 mg/kg/injection, schedule: Q04DX003 (ip), vehicle: saline): 101 % of control
- T/C (dose: 50.0 mg/kg/injection, schedule: Q04DX003 (ip), vehicle: saline): 101 % of control
- T/C (dose: 100.0 mg/kg/injection, schedule: Q04DX003 (ip), vehicle: saline): 108 % of control and 88 % of control

Compound: O=[N+]([O-])c1ccc2nc(CCl)[nH]c2c1
- T/C (dose: 12.5 mg/kg/injection, schedule: Q01DX009 (ip), vehicle: saline with Tween-80): 103 % of control
- T/C (dose: 25.0 mg/kg/injection, schedule: Q01DX009 (ip), vehicle: saline with Tween-80): 116 % of control
- T/C [6]: 99 % of control and 111 % of control

Compound: COc1cccc2c1C(=O)c1c(O)c3c(c(O)c1C2=O)C[C@@](O)(C(C)=O)C[C@@H]3OC1CC([N+]([O-])(Cc2ccccc2)Cc2ccccc2)C(O)C(C)O1 (some centres undefined)
- T/C (dose: 3.13 mg/kg/injection, schedule: Q04DX003 (ip), vehicle: distilled water + Tween-80): 114 % of control
- T/C (dose: 6.25 mg/kg/injection, schedule: Q04DX003 (ip), vehicle: distilled water + Tween-80): 108 % of control and 121 % of control
- T/C (dose: 12.5 mg/kg/injection, schedule: Q04DX003 (ip), vehicle: distilled water + Tween-80): 123 % of control
- T/C (dose: 25.0 mg/kg/injection, schedule: Q04DX003 (ip), vehicle: distilled water + Tween-80): 150 % of control and 183 % of control
- T/C (dose: 50.0 mg/kg/injection, schedule: Q04DX003 (ip), vehicle: distilled water + Tween-80): 185 % of control and 212 % of control
- T/C (dose: 100.0 mg/kg/injection, schedule: Q04DX003 (ip), vehicle: distilled water + Tween-80): 237 % of control

Compound: OC(C(=S)N1CCCC1)(c1ccccc1)c1ccccc1
- T/C [3]: 103 % of control
- T/C [4]: 103 % of control
- T/C [5]: 100 % of control

Compound: O=NN(CCCCl)C(=O)NC1CCCCC1
- T/C (dose: 12.5 mg/kg/injection, schedule: Q01DX009 (ip), vehicle: saline): 86 % of control
- T/C (dose: 25.0 mg/kg/injection, schedule: Q01DX009 (ip), vehicle: saline): 98 % of control
- T/C [7]: 104 % of control
- T/C [8]: 107 % of control

Compound: C=C=C(C)C(C(C)C)N1CCCC1 (centres undefined)
- T/C (dose: 50.0 mg/kg/injection, schedule: Q01DX005 (ip), vehicle: saline): 113 % of control
- T/C (dose: 100.0 mg/kg/injection, schedule: Q01DX005 (ip), vehicle: saline): 104 % of control

Compound: S=C(SCc1c(Cl)cccc1Cl)N1CCSCC1
- T/C [9]: 102 % of control
- T/C [10]: 93 % of control
- T/C [11]: 96 % of control

Compound: COc1ccccc1N=NC1=C2Nc3ccccc3N=C1N(c1ccccc1OC)C(=S)N2c1ccccc1C
- T/C [12]: 102 % of control
- T/C [13]: 103 % of control

Compound: O=C(O)/C=C(\Br)C(=O)O
- T/C [14]: 95 % of control
- T/C [15]: 90 % of control

Compound: Cc1cc(Br)ccc1N1C(=O)CC(Sc2ccccc2N)C1=O (centres undefined)
- T/C [1]: 88 % of control
- T/C [2]: 95 % of control
- T/C (dose: 200.0 mg/kg/injection, schedule: Q01DX005 (ip), vehicle: Klucel (hydroxypropylcellulose) (HPC)): 100 % of control

Compound: CCOC(=O)C(NC(=O)C1(O)C(O)C2(CC)C=CCN3CCC4(c5cc(C6(C(=O)OC)CC7CN(CCc8c6[nH]c6ccccc86)CC(O)(CC)C7)c(OC)cc5N(C)C14)C32)C(C)CC (centres undefined)
- T/C (dose: 1.0 mg/kg/injection, schedule: Q01DX001 (ip), vehicle: saline): 124 % of control
- T/C (dose: 2.0 mg/kg/injection, schedule: Q01DX001 (ip), vehicle: saline): 155 % of control
- T/C (dose: 4.0 mg/kg/injection, schedule: Q01DX001 (ip), vehicle: saline): 181 % of control
- T/C (dose: 8.0 mg/kg/injection, schedule: Q01DX001 (ip), vehicle: saline): 172 % of control and 203 % of control
- T/C (dose: 16.0 mg/kg/injection, schedule: Q01DX001 (ip), vehicle: saline): 191 % of control

Compound: NC(N)=NS(=O)(=O)c1ccc(N2C(=O)CC3(CCCC3)C2=O)cc1
- T/C [3]: 99 % of control
- T/C [4]: 98 % of control
- T/C [5]: 112 % of control

Compound: Nc1nc2c(c(=O)[nH]1)N(C(=O)CCCC(=O)O)C(CN(C(=O)CCCC(=O)O)c1ccc(C(=O)NC(CCC(=O)O)C(=O)O)cc1)CN2 (centres undefined) (tested in a mixture with another compound)
- T/C [7]: 94 % of control
- T/C [8]: 110 % of control
- T/C (dose: 200.0 mg/kg/injection, schedule: Q01DX009 (ip), vehicle: saline): 95 % of control

Compound: COn1nnc2ccc(N)cc21
- T/C [14]: 99 % of control
- T/C [15]: 102 % of control

Compound: CCc1cccc(NC(=O)Sc2ccc(O)cc2)c1
- T/C [6]: 108 % of control
- T/C (dose: 100.0 mg/kg/injection, schedule: Q01DX009 (ip), vehicle: saline with Tween-80): 106 % of control

Compound: CN1C(=O)CC(NC(=O)CNC(=O)c2ccccc2)C1=O (centres undefined)
- T/C [9]: 97 % of control
- T/C [10]: 94 % of control
- T/C [11]: 90 % of control

Compound: C[C@H](CSC(=O)c1ccccc1)C(=O)N1c2ccccc2C[C@H]1C(=O)O
- T/C (dose: 60.0 mg/kg/injection, schedule: Q01DX005 (ip), vehicle: saline + Tween-80 + alcohol): 102 % of control
- T/C (dose: 120.0 mg/kg/injection, schedule: Q01DX005 (ip), vehicle: saline + Tween-80 + alcohol): 102 % of control
- T/C (dose: 240.0 mg/kg/injection, schedule: Q01DX005 (ip), vehicle: saline + Tween-80 + alcohol): 104 % of control

Compound: Nc1ccc2c(C(F)(F)F)cc(=O)[nH]c2c1
- T/C (dose: 25.0 mg/kg/injection, schedule: Q01DX005 (ip), vehicle: saline with Tween-80): 100 % of control
- T/C [12]: 91 % of control
- T/C [13]: 92 % of control

Compound: Cc1ccc(N2CCN(CC(O)COc3cc4c(c5c3CCCC5)CCCC4)CC2)cc1C (centres undefined)
- T/C (dose: 100.0 mg/kg/injection, schedule: Q04DX003 (ip), vehicle: Klucel (hydroxypropylcellulose) (HPC)): 95 % of control
- T/C (dose: 200.0 mg/kg/injection, schedule: Q04DX003 (ip), vehicle: Klucel (hydroxypropylcellulose) (HPC)): 93 % of control
- T/C (dose: 400.0 mg/kg/injection, schedule: Q04DX003 (ip), vehicle: Klucel (hydroxypropylcellulose) (HPC)): 91 % of control
